System: patients scheduled for elective percutaneous coronary intervention (PCI) with high-risk features for periprocedural myocardial infarction
Test: Randomized placebo-controlled study of P5P in patients undergoing elective PCI: recovery, length of hospitalization, time to discharge
Assay type: in vivo, human
From the text: Selection of Study Population—The patients selected for this trial were patients scheduled for elective percutaneous coronary intervention (PCI) with high-risk features for periprocedural myocardial infarction, and who satisfied specific inclusion criteria as described in the next section. Patients to be included in this study were of either sex, >18 years of age and admitted to hospital for elective, single-vessel, non-urgent PCI. Patients must have presented with at least one of the following high-risk clinical criteria: • ACS with last chest pain episode (or ischemic equivalent) within 48 hours, • recent myocardial infarction (≦7 days) with return of cardiac markers, (CK, CK-MB, and troponin) to below upper normal limits, • angiographic evidence of reduced epicardial flow (TIMI<3), • angiographic evidence of thrombus, • left ventricular ejection fraction≦30%, or • saphenous vein graft lesion.
The following patients were not eligible for inclusion into the study: • Those having suffered a recent myocardial infarction with elevated cardiac markers (CK-MB, troponin T), that have not returned to below upper limits or normal; • Those with electrocardiographic evidence of left bundle branch block (LBBB), ventricular paced rhythm, or atrial fibrillation; • Those with a planned multivessel PCI or PCI of known total occlusion (TIMI grade 0); • Those with evidence of ongoing or active clinical instability including; sustained systolic blood pressure<90 mmHg, cardiogenic shock, acute pulmonary edema or severe congestive heart failure, suspected acute myocarditis, pericarditis, endocarditis, cardiac tamponade, suspected dissecting aortic aneurysm, hemodynamically significant valvular heart disease, hypertrophic cardiomyopathy, restrictive cardiomyopathy, or congenital heart disease; • Any contraindication to the PCI procedure or any of the standard concomitant therapies used during routine PCI (e.g. aspirin, clopidogrel, heparin, low molecular weight heparin, direct antithrombin inhibitors, platelet glycoprotein IIb/IIIa antagonists); • Patients who were currently enrolled in a clinical trial of an investigational drug or who have participated in a clinical trial for an investigational drug (a new chemical entity not registered for clinical use) within 30 days preceding entry into the study or who are due to enter such a trial during the study period; • Patients with clinically significant abnormal laboratory findings (within 2 weeks prior to PCI) including: ALT, AST, bilirubin, or Alk Phos>1.5×ULN, Serum creatinine>1.8 mg/dL or 159 μmol/L; • Patients with any other pathology such as cancer, mental illness etc., which in the opinion of the investigator, might put the patient at risk or confound the results of the trial; • Female patients who are pregnant, breast feeding or planning a pregnancy during the course of the study; and • Patients who are unable or unwilling to comply with the protocol or who are not expected to complete the study period.
Treatments Administered—Following baseline laboratory assessments, patients were randomized to placebo or P5P (a vitamin B6 related compound), administered as a 10 mg/kg oral dose, at least (4) hours prior to PCI, followed by 10 mg/kg orally divided in two daily doses for fourteen (14) days. If PCI was delayed for more than 12 hours after initial dosing, they continued with scheduled BID dosing. If the initial loading dose was administered prior to or at 12:00 PM on day 1 of randomization, then the patient received a second evening dose. If the initial loading dose was administered following 12:00 PM, then no further dosing was administered on day 1, and the patient was to begin the next dose in the morning of day 2. If a dose was missed for more than 24 hours, patients were to continue to take the study drug as scheduled without taking supplemental doses. The date, time and dosing of the first and last study drug dosing was recorded in the CRF. […]

[1] = P5P 10 mg/kg oral, N = 37 (3 missing)

## Cc1ncc(COP(=O)(O)O)c(C=O)c1O [P5P, pyridoxal-5′-phosphate]
3.3 days versus 7.0 days for placebo
  Time in hospital relative to placebo: half as long
P5P 10 mg/kg oral at least 4 h prior to PCI, then 10 mg/kg/day for 14 days, N = 40
  Length of hospitalization, Median (25th, 75th): 1.0 (1.0, 3.0) days
P5P 10 mg/kg oral at least 4 h prior to PCI, then 10 mg/kg/day in two daily doses for 14 days, N = 40
  Length of hospitalization, Mean (S.D.): 3.3 (5.5) days
P5P 10 mg/kg oral, N = 37
  Time to discharge from initiation of PCI, Maximum: 34.0 days
  Time to discharge from initiation of PCI, Minimum: 1.0 days
[1]
  Time to discharge from initiation of PCI, Mean (S.D): 1.9 (5.4) days
  Time to discharge from initiation of PCI, Medium (25th, 75th): 1.0 (1.0, 1.0) days
P5P 10 mg/kg oral, N = 40
  Length of hospitalization, Maximum: 34.0 days
  Length of hospitalization, Minimum: 0.0 days
P5P versus placebo
  Number of days from initiation of PCI to discharge from hospital, shorter versus placebo: 74%
Placebo 7.0 days
  Time in hospital: 3.3 days

— patent publication US20080214504A1, “Vitamin B6 Related Compounds and Methods for Recovery From Trauma” (MEDICURE INTERNATIONAL INC., priority 2004, published 2008)
